{"source": "patent US10654833B2", "about": "“ASK1 isoindolin-1-one inhibitors and methods of use thereof” (Hepatikos Therapeutics, LLC, priority 2018, dated 2020)"}
{"target": "recombinant human ASK1 protein (Homo sapiens (Human), UniProt Q99683)", "sequence (Q99683 whole entry)": "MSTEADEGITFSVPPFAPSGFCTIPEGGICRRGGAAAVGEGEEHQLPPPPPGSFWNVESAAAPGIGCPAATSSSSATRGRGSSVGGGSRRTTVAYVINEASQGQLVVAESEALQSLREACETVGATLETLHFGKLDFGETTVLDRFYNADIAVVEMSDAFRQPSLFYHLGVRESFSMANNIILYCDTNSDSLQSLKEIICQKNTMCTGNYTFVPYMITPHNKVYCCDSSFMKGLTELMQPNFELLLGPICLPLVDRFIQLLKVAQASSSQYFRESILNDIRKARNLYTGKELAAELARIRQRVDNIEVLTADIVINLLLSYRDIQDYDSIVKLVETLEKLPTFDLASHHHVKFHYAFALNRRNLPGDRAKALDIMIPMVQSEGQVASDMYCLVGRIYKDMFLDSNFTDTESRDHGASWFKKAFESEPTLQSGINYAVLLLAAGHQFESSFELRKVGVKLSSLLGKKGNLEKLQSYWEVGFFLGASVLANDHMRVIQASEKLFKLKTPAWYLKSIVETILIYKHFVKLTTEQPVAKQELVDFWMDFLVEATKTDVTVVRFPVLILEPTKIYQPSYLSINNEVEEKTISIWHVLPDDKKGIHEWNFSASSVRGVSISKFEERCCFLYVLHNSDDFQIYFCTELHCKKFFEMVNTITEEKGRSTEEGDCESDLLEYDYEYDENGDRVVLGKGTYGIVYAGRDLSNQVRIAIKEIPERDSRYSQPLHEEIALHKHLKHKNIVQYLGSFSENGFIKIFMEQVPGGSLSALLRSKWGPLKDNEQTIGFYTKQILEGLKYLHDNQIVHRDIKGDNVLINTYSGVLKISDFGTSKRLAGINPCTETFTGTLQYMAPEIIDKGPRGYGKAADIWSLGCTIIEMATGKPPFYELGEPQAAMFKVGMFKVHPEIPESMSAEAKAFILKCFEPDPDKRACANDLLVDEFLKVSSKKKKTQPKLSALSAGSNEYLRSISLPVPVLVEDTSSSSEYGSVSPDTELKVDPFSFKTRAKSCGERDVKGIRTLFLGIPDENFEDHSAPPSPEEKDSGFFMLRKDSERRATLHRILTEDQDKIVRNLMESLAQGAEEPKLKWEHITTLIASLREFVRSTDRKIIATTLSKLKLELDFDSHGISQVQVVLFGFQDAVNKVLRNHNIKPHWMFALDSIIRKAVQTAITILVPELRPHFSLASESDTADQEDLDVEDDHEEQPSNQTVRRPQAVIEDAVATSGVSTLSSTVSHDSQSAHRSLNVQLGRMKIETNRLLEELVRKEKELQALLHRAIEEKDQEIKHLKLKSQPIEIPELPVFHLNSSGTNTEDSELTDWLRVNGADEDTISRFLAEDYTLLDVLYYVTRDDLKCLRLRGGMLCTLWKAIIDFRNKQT", "test": "ASK1 kinase activity inhibition assay (radiometric 33P incorporation into MBP)", "format": "biochemical", "details": "Table 3; 20 μM MBP, 10 μM 33P-ATP", "experimental": "ASK1 Kinase Activity Inhibition Assay\nInhibition of ASK1 kinase activity was determined radiometrically using 33P substrate incorporation (Reaction Biology Corp., Malvern, Pa.). Briefly, recombinant human ASK1 protein, 20 μM substrate (myelin basic protein (MBP)), and compound (diluted from DMSO stock to give 1% final DMSO) were incubated in Base Reaction buffer (20 mM Hepes (pH 7.5), 10 mM MgCl2, 1 mM EGTA, 0.02% Brij35, 0.02 mg/mL BSA, 0.1 mM Na3VO4, 2 mM DTT, 1% DMSO) at room temperature for 20 minutes. The reaction was initiated by addition of 10 μM 33P-ATP (specific activity […]). The reaction was then allowed to proceed for 2 hours at room temperature. Upon reaction termination, the mixture was spotted on P81 exchange paper and kinase activity by incorporation of 33P into MBP substrate was detected by filter-binding method.", "units": {"IC50": "nM"}}
{"compound": "COC(=O)C(C)(C)c1cccc(-c2ccc3c(c2)C(=O)N(c2cccc(-c4nncn4C4CC4)n2)C3)c1", "note": "[Compound 104, Methyl 2-(3-(2-(6-(4-cyclopropyl-4H-1,2,4-triazol-3-yl)pyridin-2-yl)-3-oxoisoindolin-5-yl)phenyl)-2-methylpropanoate]", "IC50": 46.6}
{"compound": "O=C1c2cc(-c3ccc(C4(C(=O)O)CC4)cc3)ccc2CN1c1cccc(-c2nncn2C2CC2)n1", "note": "[Compound 87, 1-(4-(2-(6-(4-Cyclopropyl-4H-1,2,4-triazol-3-yl)pyridin-2-yl)-3-oxoisoindolin-5-yl)phenyl)cyclopropane-1-carboxylic Acid]", "IC50": 2.5}
{"compound": "COc1cc(-c2ccc3c(c2)C(=O)N(c2cccc(-c4nncn4C(C)C)n2)C3)ccc1C(=O)O", "note": "[Compound 75, 4-(2-(6-(4-Isopropyl-4H-1,2,4-triazol-3-yl)pyridin-2-yl)-3-oxoisoindolin-5-yl)-2-methoxybenzoic Acid]", "IC50": 5.6}
{"compound": "COc1ncc(-c2ccc3c(c2)C(=O)N(c2cccc(-c4nncn4C(C)C)n2)C3)cc1C(=O)O", "note": "[Compound 116, 5-(2-(6-(4-Isopropyl-4H-1,2,4-triazol-3-yl)pyridine-2-yl)-3-oxoisoindolin-5-yl)-2-methoxynicotinic Acid]", "IC50": 4.6}
{"compound": "COC(=O)c1ccc(F)c(-c2ccc3c(c2)C(=O)N(c2cccc(-c4nncn4C4CC4)n2)C3)c1", "note": "[Compound 101, Methyl 3-(2-(6-(4-cyclopropyl-4H-1,2,4-triazol-3-yl)pyridin-2-yl)-3-oxoisoindolin-5-yl)-4-fluorobenzoate]", "IC50": 3.28}
{"compound": "COC(=O)c1ccc(-c2ccc3c(c2)C(=O)N(c2cccc(-c4nncn4C(C)C)n2)C3)cc1", "note": "[Compound 81, Methyl 4-(2-(6-(4-isopropyl-4H-1,2,4-triazol-3-yl)pyridin-2-yl)-3-oxoisoindolin-5-yl)benzoate]", "IC50": 14.9}
{"compound": "CC(C)n1cnnc1-c1cccc(N2Cc3ccc(-c4ccc(Cl)c(C(=O)O)c4)cc3C2=O)n1", "note": "[Compound 60, 2-Chloro-5-(2-(6-(4-isopropyl-4H-1,2,4-triazol-3-yl)pyridin-2-yl)-3-oxoisoindolin-5-yl)benzoic Acid]", "IC50": 5}
{"compound": "CC(C)n1cnnc1-c1cccc(N2Cc3ccc(-c4ccc(C(=O)O)cc4O)cc3C2=O)n1", "note": "[Compound 69, 3-Hydroxy-4-(2-(6-(4-isopropyl-4H-1,2,4-triazol-3-yl)pyridin-2-yl)-3-oxoisoindolin-5-yl)benzoic Acid]", "IC50": 6.6}
{"compound": "CC(C)(C(=O)O)c1ccc(-c2ccc3c(c2)C(=O)N(c2cccc(-c4nncn4C4CC4)n2)C3)cc1", "note": "[Compound 53, 2-(4-(2-(6-(4-cyclopropyl-4H-1,2,4-triazol-3-yl)pyridin-2-yl)-3-oxoisoindolin-5-yl)phenyl)-2-methylpropanoic acid]", "IC50": 2.6}
{"compound": "CC(C)n1cnnc1-c1cccc(N2Cc3ccc(-c4ccc(C(=O)O)c(CO)c4)cc3C2=O)n1", "note": "[Compound 83, 2-(Hydroxymethyl)-4-(2-(6-(4-isopropyl-4H-1,2,4-triazol-3-yl)pyridin-2-yl)-3-oxoisoindolin-5-yl)benzoic Acid]", "IC50": 6.2}
{"compound": "Cc1ccc(-c2ccc3c(c2)C(=O)N(c2cccc(-c4nncn4C(C)C)n2)C3)cc1C(=O)O", "note": "[Compound 9, 5-(2-(6-(4-Isopropyl-4H-1,2,4-triazol-3-yl)pyridin-2-yl)-3-oxoisoindolin-5-yl)-2-methylbenzoic acid]", "IC50": 5.6}
{"compound": "CC(C)n1cnnc1-c1cccc(N2Cc3ccc([C@H]4CC[C@H](C(=O)O)CC4)cc3C2=O)n1", "note": "[Compound 126, trans-4-(2-(6-(4-Isopropyl-4H-1,2,4-triazol-3-yl)pyridin-2-yl)-3-oxoisoindolin-5-yl)cyclohexane-1-carboxylic acid]", "IC50": 13.4}
{"compound": "COc1ccc(C(=O)O)cc1-c1ccc2c(c1)C(=O)N(c1cccc(-c3nncn3C(C)C)n1)C2", "note": "[Compound 8, 3-(2-(6-(4-Isopropyl-4H-1,2,4-triazol-3-yl)pyridin-2-yl)-3-oxoisoindolin-5-yl)-4-methoxybenzoic Acid]", "IC50": 10.7}
{"compound": "CC(C)n1cnnc1-c1cccc(N2Cc3ccc(-c4ccc(O)c(C(=O)O)c4)cc3C2=O)n1", "note": "[Compound 64, 2-Hydroxy-5-(2-(6-(4-isopropyl-4H-1,2,4-triazol-3-yl)pyridin-2-yl)-3-oxoisoindolin-5-yl)benzoic Acid]", "IC50": 7}
{"compound": "CC(C)n1cnnc1-c1cccc(N2Cc3ccc(-c4cccc(OCC(=O)O)c4)cc3C2=O)n1", "note": "[Compound 108, 2-(3-(2-(6-(4-Isopropyl-4H-1,2,4-triazol-3-yl)pyridin-2-yl)-3-oxoisoindolin-5-yl)phenoxy) Acetic Acid]", "IC50": 5.2}
{"compound": "CC(C)n1cnnc1-c1cccc(N2Cc3ccc(-c4ccc(OCC(=O)O)cc4)cc3C2=O)n1", "note": "[Compound 89, 2-(4-(2-(6-(4-Isopropyl-4H-1,2,4-triazol-3-yl)pyridin-2-yl)-3-oxoisoindolin-5-yl)phenoxy) acetic Acid]", "IC50": 4.9}
{"compound": "CC(C)n1cnnc1-c1cccc(N2Cc3ccc(-c4ccc(C(C)(C)C(=O)O)cc4F)cc3C2=O)n1", "note": "[Compound 41, 2-(3-Fluoro-4-(2-(6-(4-isopropyl-4H-1,2,4-triazol-3-yl)pyridin-2-yl)-3-oxoisoindolin-5-yl)phenyl)-2-methylpropanoic Acid]", "IC50": 4.7}
{"compound": "COc1c(C)cc(-c2ccc3c(c2)C(=O)N(c2cccc(-c4nncn4C(C)C)n2)C3)cc1C(=O)O", "note": "[Compound 80, 5-(2-(6-(4-Isopropyl-4H-1,2,4-triazol-3-yl)pyridin-2-yl)-3-oxoisoindolin-5-yl)-2-methoxy-3-methylbenzoic Acid]", "IC50": 5.2}
{"compound": "COc1cc(N)c(-c2ccc3c(c2)C(=O)N(c2cccc(-c4nncn4C(C)C)n2)C3)cc1C(=O)O", "note": "[Compound 66, 4-Amino-5-(2-(6-(4-isopropyl-4H-1,2,4-triazol-3-yl)pyridin-2-yl)-3-oxoisoindolin-5-yl)-2-methoxybenzoic Acid]", "IC50": 8.9}
{"compound": "CC(C)n1cnnc1-c1cccc(N2Cc3ccc(-c4cc(C#N)cc(C(=O)O)c4)cc3C2=O)n1", "note": "[Compound 13, 3-Cyano-5-(2-(6-(4-isopropyl-4H-1,2,4-triazol-3-yl)pyridin-2-yl)-3-oxoisoindolin-5-yl) benzoic Acid]", "IC50": 1.6}
{"compound": "CC(C)n1cnnc1-c1cccc(N2Cc3ccc(-c4nccc(C(=O)O)c4F)cc3C2=O)n1", "note": "[Compound 113, 3-Fluoro-2-(2-(6-(4-isopropyl-4H-1,2,4-triazol-3-yl) 103yridine-2-yl)-3-oxoisoindolin-5-yl) Isonicotinic Acid]", "IC50": 1.6}
{"compound": "CC(C)n1cnnc1-c1cccc(N2Cc3ccc(-c4ccc(C(=O)O)c(S(C)(=O)=O)c4)cc3C2=O)n1", "note": "[Compound 77, 4-(2-(6-(4-Isopropyl-4H-1,2,4-triazol-3-yl)pyridin-2-yl)-3-oxoisoindolin-5-yl)-2-(methylsulfonyl)benzoic Acid]", "IC50": 2.8}
{"compound": "CC(C)(C(=O)O)c1cccc(-c2ccc3c(c2)C(=O)N(c2cccc(-c4nncn4C4CC4)n2)C3)c1", "note": "[Compound 103, 2-(3-(2-(6-(4-Cyclopropyl-4H-1,2,4-triazol-3-yl)pyridin-2-yl)-3-oxoisoindolin-5-yl)phenyl)-2-methylpropanoic Acid]", "IC50": 12.5}
{"compound": "CC(C)n1cnnc1-c1cccc(N2Cc3ccc(N4CCC(CC(=O)O)CC4)cc3C2=O)n1", "note": "[Compound 129, 2-(1-(2-(6-(4-Isopropyl-4H-1,2,4-triazol-3-yl)pyridin-2-yl)-3-oxoisoindolin-5-yl)piperidin-4-yl)acetic Acid]", "IC50": 6.6}
